This is an account of results in ChEMBL document CHEMBL1159344, “Natural anti-HIV agents. Part IV. Anti-HIV constituents from Vatica cinerea” (J Nat Prod, 2003).

Series [1] is described as follows: Selectivity index, ratio of CC50 for HOG.R5 cells to IC50 for HIV1 3B. It counts as functional.
For series [2], the system named is Human immunodeficiency virus 1. Kind of series: Antiviral activity against HIV1 3B infected in human HOG.R5 assessed as inhibition of viral replication by microtiter assay. It counts as functional, organism-based. To be noted: Human immunodeficiency virus 1, 3B.
Series [3] can be described thus: Cytotoxicity against human HOG.R5 cells. It counts as cell-based.
For series [4], the system named is Human immunodeficiency virus 1. Kind of series: Antiviral activity against HIV1 3B infected in human HOG.R5 assessed as inhibition of viral replication at 20 ug/ml by microtiter assay. The series is classed as functional. To be noted: Human immunodeficiency virus 1, 3B.
The nature of series [5]: Cytotoxicity against human HOG.R5 cells at 20 ug/ml. It counts as cell-based.
In series [6] the test system is Human immunodeficiency virus 1. Kind of series: Antiviral activity against HIV1 3B infected in human HOG.R5 assessed as inhibition of viral replication at 2.5 ug/ml by microtiter assay. It counts as functional. To be noted: Human immunodeficiency virus 1, 3B.

Structures are written as SMILES.

The IC50 is the midpoint of a concentration-inhibition curve. The term CC50 denotes the concentration giving 50% cytotoxicity. Consider `C=C(CC[C@H](O)C(=C)C)[C@H]1CC[C@]2(C)[C@@H]1CC[C@@H]1[C@@]3(C)CC[C@H](O)C(C)(C)[C@@H]3CC[C@]12C`, for which, in series [1], the “Ratio CC50/IC50” value was 2.3. The IC50 in series [2] worked out at 6.1 µM. Further, the CC50 in series [3] amounted to 14.3 µM.
Turning to `CC(=O)/C=C/C[C@@H](C)[C@H]1CC[C@@]2(C)[C@@H]3CC[C@H]4C(C)(C)C(=O)CC[C@@]45C[C@@]35CC[C@]12C` [VATICINONE], the “Ratio CC50/IC50” value in series [1] stood at 1.4. Also, the IC50 in series [2] came out at 15.3 µM. Moreover, the CC50 in series [3] is 21.5 µM.
Broadly, the inhibition is the share of the control response that was lost under treatment. On to `CC(CCC[C@@H](C)[C@H]1CC[C@@]2(C)[C@@H]3CC[C@H]4C(C)(C)C(=O)CC[C@@]45C[C@@]35CC[C@]12C)C(=O)O` (stereo partly specified) [DIHYDROSCHIZANDRONIC ACID], for which the inhibition at 20 µg/mL in series [4] was 0%. Moreover, the IC50 in series [2] was 43.9 µM. Moreover, in series [3], the CC50 was 43.9 µM. The Activity entry in series [5] is “Non-toxic”.
On to `C=C(C)[C@@H]1CC[C@]2(C(=O)O)CC[C@]3(C)[C@H](CC[C@@H]4[C@@]5(C)CC[C@H](O)C(C)(C)[C@@H]5CC[C@]43C)[C@@H]12` [BETULINIC ACID], for which the “Ratio CC50/IC50” value in series [1] turned out to be 1.1. In addition, in series [2], the IC50 came to 32.5 µM. The compound further yielded a CC50 in series [3] of 36 µM.
With `C/C(=C\CC[C@@H](C)[C@H]1CC[C@@]2(C)[C@@H]3CC[C@H]4C(C)(C)C(=O)CC[C@@]45C[C@@]35CC[C@]12C)C(=O)O` [MANGIFERONIC ACID], the inhibition at 20 µg/mL in series [4] was 19%. In addition, in series [2], the IC50 stood at 44.1 µM. The same compound displayed a CC50 in series [3] of 44.1 µM. For the same compound, in series [5], the Activity result was “Non-toxic”.
For the compound `CC(=O)/C=C/C[C@@H](C)[C@H]1CC[C@@]2(C)[C@@H]3CC[C@H]4C(C)(C)[C@@H](O)CC[C@@]45C[C@@]35CC[C@]12C`, the inhibition at 2.5 µg/mL in series [6] stood at 21%. In series [2], the IC50 is 5.9 µM. Also, the CC50 in series [3] is 12.7 µM.
With `C=Cc1c(C)c2cc3nc(c4c5[nH]c(cc6nc(cc1[nH]2)C(C)=C6CC)c(C)c5C(=O)[C@@H]4C(=O)OC)[C@@H](CCC(=O)O)[C@@H]3C` [PHEOPHORBIDE A], the “Ratio CC50/IC50” value in series [1] is listed as >13. Moreover, in series [2], the IC50 turned out to be 2.5 µM. Also, the 50% cytotoxic concentration (CC50) in series [3] stood at 33.8 µM.
As for `C=C(C)[C@@H]1CC[C@]2(CO)CC[C@]3(C)[C@H](CC[C@@H]4[C@@]5(C)CC[C@H](O)C(C)(C)[C@@H]5CC[C@]43C)[C@@H]12` [BETULIN], the “Ratio CC50/IC50” value in series [1] amounted to 1.4. Moreover, the IC50 in series [2] amounted to 13.8 µM. The CC50 in series [3] was determined as 19.5 µM.
In the case of `C/C(=C\CC[C@@H](C)[C@H]1CC[C@@]2(C)C3=C(CC[C@]12C)[C@@]1(C)CCC(=O)C(C)(C)[C@@H]1CC3)C(=O)O`, the “Ratio CC50/IC50” value in series [1] was 1.7. Moreover, the IC50 in series [2] is 8.6 µM. In series [3], this compound gave a CC50 of 14.8 µM.
As for `CC1=C2[C@@H]3[C@H](CC[C@H](C)[C@]2(O)CC1=O)C3(C)C`, the “Ratio CC50/IC50” value in series [1] is >1. For the same compound, the IC50 in series [2] is 88 µM. Further, the CC50 in series [3] is 85.5 µM. Besides, the Activity result in series [5] was “Non-toxic”.
Take `C[C@H]1[C@H](C)CC[C@]2(C(=O)O)CC[C@]3(C)C(=CC[C@@H]4[C@@]5(C)CC[C@H](O)C(C)(C)[C@@H]5CC[C@]43C)[C@H]12` [URSOLIC ACID]: the “Ratio CC50/IC50” value in series [1] came out at 4.9. Besides, in series [2], the IC50 worked out at 14.7 µM. The compound further showed a 50% cytotoxic concentration (CC50) in series [3] of 15.8 µM.
Turning to `CC1(C)CC[C@]2(CO)CC[C@]3(C)C(=CC[C@@H]4[C@@]5(C)CC[C@H](O)C(C)(C)[C@@H]5CC[C@]43C)[C@@H]2C1` [ERYTHRODIOL], in series [4], the inhibition at 20 µg/mL stood at 33%. Besides, the “Ratio CC50/IC50” value in series [1] is given as >1. Further, in series [2], the IC50 was 45.2 µM. The CC50 in series [3] was 45.2 µM. The Activity result in series [5] is “Non-toxic”.
As for `C=C(C/C=C/C(C)(C)O)[C@H]1CC[C@]2(C)[C@@H]1CC[C@@H]1[C@@]3(C)CC[C@H](O)C(C)(C)[C@@H]3CC[C@]12C`, the “Ratio CC50/IC50” value in series [1] turned out to be 1.3. The half-inhibitory concentration (IC50) in series [2] amounted to 22.6 µM. This compound had a CC50 in series [3] of 30.3 µM.
On to `C=C(C)[C@@H]1CC[C@]2(C(=O)O)CC[C@]3(C)[C@H](CC[C@@H]4[C@@]5(C)CCC(=O)C(C)(C)[C@@H]5CC[C@]43C)[C@@H]12` [BETUNOLIC ACID], for which the IC50 in series [2] worked out at 21.4 µM. The compound also had a CC50 in series [3] of 105 µM.
